# Results as given in patent US12528812B2 (Genentech, Inc., priority 2020, dated 2026).
# Like-named read-outs stand apart in the source and are kept apart here.
# Legend:
# [1] = biological target: T1, recombinant human JAK1 kinase domain protein (Residues 854-1154) (Homo sapiens, UniProt P23458); assay: JAK1 biochemical assay (LabChip mobility shift, Ki); conditions: read-out: Biochem JAK1 Ki
# T1 construct: human JAK1 kinase domain protein (Residues 854-1154); purchased Proteros Biostructures GmbH (Martinsried, Germany); host or cells: insect cells
# T1 sequence (P23458 854-1154): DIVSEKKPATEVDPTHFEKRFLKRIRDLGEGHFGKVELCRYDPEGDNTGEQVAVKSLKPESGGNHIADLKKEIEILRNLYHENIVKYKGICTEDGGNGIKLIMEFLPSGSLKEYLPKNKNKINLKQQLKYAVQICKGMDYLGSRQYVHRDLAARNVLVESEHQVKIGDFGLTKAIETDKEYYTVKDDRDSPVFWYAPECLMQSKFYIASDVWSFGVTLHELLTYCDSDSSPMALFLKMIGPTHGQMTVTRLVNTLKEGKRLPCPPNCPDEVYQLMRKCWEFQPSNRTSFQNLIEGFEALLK
# [2] = test system: IL-13-stimulated STAT6 phosphorylation in human lung bronchial epithelial BEAS-2B cell line; assay: P-STAT6 BEAS-2B + IL-13 cell assay; assay type: cell-based; conditions: BEAS2B cells, IL13 stimulation, read-out: Cellular JAK1 PSTAT6 BEAS2B + IL13
# In short: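 BEAS-2B cells grown 48 h at 37 °C, pre-treated 1 h with compound (10-point 1:2 dilution curve), then stimulated 15 min with human recombinant IL-13 (250 ng/mL stock). Lysate P-STAT6 (Tyr641) read by MSD sandwich ELISA with total-STAT6 capture; IC50 from four-parameter logistic fit of control-normalised data.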
# [3] = biological target: Recombinant human JAK2 kinase domain protein (Residues 812-1132) (Homo sapiens, UniProt O60674); assay: JAK2 biochemical assay (LabChip mobility shift, Ki); conditions: Biochem JAK2 Ki
# Recombinant human JAK2 kinase domain protein (Residues 812-1132), sequence (O60674 812-1132): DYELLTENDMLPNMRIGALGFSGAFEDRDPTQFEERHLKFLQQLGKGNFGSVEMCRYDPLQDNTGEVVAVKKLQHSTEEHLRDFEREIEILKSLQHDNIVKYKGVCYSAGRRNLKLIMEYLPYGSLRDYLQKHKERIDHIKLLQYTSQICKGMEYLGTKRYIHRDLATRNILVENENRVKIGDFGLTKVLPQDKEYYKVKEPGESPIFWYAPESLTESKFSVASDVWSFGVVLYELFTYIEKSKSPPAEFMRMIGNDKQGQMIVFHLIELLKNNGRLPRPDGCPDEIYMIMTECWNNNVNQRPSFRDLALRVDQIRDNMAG
SMILES,Ki [1],"IC50 ([2]; Homo sapiens, BEAS-2B)",Ki [3],IC50 [2]
"CN1CC(O)(c2cncc(Oc3ccc(OC(F)F)c(-c4nn(C)cc4NC(=O)c4cnn5cccnc45)c3)c2)C1 [Example 189, N-[3-[2-(difluoromethoxy)-5-[[5-(3-hydroxy-l-methyl-azetidin-3-yl)-3-pyridyl]oxy]phenyl]-1-methyl-pyrazol-4-yl]pyrazolo[1,5-a]pyrimidine-3-carboxamide]",0.57 nM,78 nM,0.39 nM,–
"CN1CCC(O)(Cn2cc(Oc3ccc(OC(F)F)c(-c4nn(C)cc4NC(=O)c4cnn5cccnc45)c3)cn2)CC1 [Example 191, N-[3-[2-(difluoromethoxy)-5-[1-[(4-hydroxy-1-methyl-4-piperidyl)methyl]pyrazol-4-yl]oxy-phenyl]-1-methyl-pyrazol-4-yl]pyrazolo[1,5-a]pyrimidine-3-carboxamide]",0.54 nM,110 nM,0.19 nM,–
"CN1CCCC(O)(Cn2cc(Oc3ccc(OC(F)F)c(-c4nn(C)cc4NC(=O)c4cnn5cccnc45)c3)cn2)C1 (stereo not drawn) [Example 193, N-[3-[2-(difluoromethoxy)-5-[1-[(3-hydroxy-l-methyl-3-piperidyl)methyl]pyrazol-4-yl]oxy-phenyl]-1-methyl-pyrazol-4-yl]pyrazolo[1,5-a]pyrimidine-3-carboxamide]",1.6 nM,58 nM,2.3 nM,–
"CN1CCCC(O)(Cn2cc(Oc3ccc(OC(F)F)c(-c4nn(C)cc4NC(=O)c4cnn5cccnc45)c3)cn2)C1 (stereo not drawn) [Example 194, N-[3-[2-(difluoromethoxy)-5-[1-[(3-hydroxy-l-methyl-3-piperidyl)methyl]pyrazol-4-yl]oxy-phenyl]-1-methyl-pyrazol-4-yl]pyrazolo[1,5-a]pyrimidine-3-carboxamide]",2.1 nM,–,1.4 nM,64 nM
"CN1CCCC(O)(Cn2cc(Oc3ccc(OC(F)F)c(-c4nn(C)cc4NC(=O)c4cnn5cccnc45)c3)cn2)CC1 (stereo not drawn) [Example 196, N-[3-[2-(difluoromethoxy)-5-[1-[(4-hydroxy-1-methyl-azepan-4-yl)methyl]pyrazol-4-yl]oxy-phenyl]-1-methyl-pyrazol-4-yl]pyrazolo[1,5-a]pyrimidine-3-carboxamide]",0.8 nM,120 nM,0.52 nM,–
"CN1CCCC(O)(Cn2cc(Oc3ccc(OC(F)F)c(-c4nn(C)cc4NC(=O)c4cnn5cccnc45)c3)cn2)CC1 (stereo not drawn) [Example 197, N-[3-[2-(difluoromethoxy)-5-[1-[(4-hydroxy-l-methyl-azepan-4-yl)methyl]pyrazol-4-yl]oxy-phenyl]-1-methyl-pyrazol-4-yl]pyrazolo[1,5-a]pyrimidine-3-carboxamide]",0.81 nM,–,0.51 nM,130 nM
"CN(C)CCN1CC(O)(Cn2cc(Oc3ccc(OC(F)F)c(-c4nn(C)cc4NC(=O)c4cnn5cccnc45)c3)cn2)C1 [Example 198, N-[3-[2-(difluoromethoxy)-5-[1-[[1-[2-(dimethylamino)ethyl]-3-hydroxy-azetidin-3-yl]methyl]pyrazol-4-yl]oxy-phenyl]-1-methyl-pyrazol-4-yl]pyrazolo[1,5-a]pyrimidine-3-carboxamide]",1.5 nM,1000 nM,0.83 nM,–
"Cn1cc(NC(=O)c2cnn3cccnc23)c(-c2cc(Oc3cnn(CC4(O)CN5CCC4CC5)c3)ccc2OC(F)F)n1 (stereo not drawn) [Example 199, N-[3-[2-(difluoromethoxy)-5-[1-[(3-hydroxyquinuclidin-3-yl)methyl]pyrazol-4-yl]oxy-phenyl]-1-methyl-pyrazol-4-yl]pyrazolo[1,5-a]pyrimidine-3-carboxamide]",0.88 nM,–,0.43 nM,130 nM
"Cn1cc(NC(=O)c2cnn3cccnc23)c(-c2cc(Oc3cnn(CC4(O)CN5CCC4CC5)c3)ccc2OC(F)F)n1 (stereo not drawn) [Example 200, N-[3-[2-(difluoromethoxy)-5-[1-[(3-hydroxyquinuclidin-3-yl)methyl]pyrazol-4-yl]oxy-phenyl]-1-methyl-pyrazol-4-yl]pyrazolo[1,5-a]pyrimidine-3-carboxamide]",3.6 nM,–,1.6 nM,780 nM
"Cn1cc(NC(=O)c2cnn3cccnc23)c(-c2cc(Oc3ccnnc3)ccc2OC(F)F)n1 [Example 202, N-[3-[2-(difluoromethoxy)-5-pyridazin-4-yloxy-phenyl]-1-methyl-pyrazol-4-yl]pyrazolo[1,5-a]pyrimidine-3-carboxamide]",0.68 nM,26 nM,0.38 nM,–
"CN1CCC(n2cc(Oc3ccc(OC(F)F)c(-c4nn(C)cc4NC(=O)c4cnn5cccnc45)c3)cn2)CC1 [Example 203, N-[3-[2-(difluoromethoxy)-5-[1-(1-methyl-4-piperidyl)pyrazol-4-yl]oxy-phenyl]-1-methyl-pyrazol-4-yl]pyrazolo[1,5-a]pyrimidine-3-carboxamide]",2.5 nM,75 nM,2.3 nM,–
"Cn1cc(NC(=O)c2cnn3cccnc23)c(-c2cc(Oc3cccnn3)ccc2OC(F)F)n1 [Example 204, N-[3-[2-(difluoromethoxy)-5-pyridazin-3-yloxy-phenyl]-1-methyl-pyrazol-4-yl]pyrazolo[1,5-a]pyrimidine-3-carboxamide]",2.2 nM,56 nM,1.4 nM,–
"CN1CC(N(C)C(=O)c2cccc(Oc3ccc(OC(F)F)c(-c4nn(C)cc4NC(=O)c4cnn5cccnc45)c3)c2)C1 [Example 205, N-[3-[2-(difluoromethoxy)-5-[3-[methyl-(1-methylazetidin-3-yl)carbamoyl]phenoxy]phenyl]-1-methyl-pyrazol-4-yl]pyrazolo[1,5-a]pyrimidine-3-carboxamide]",0.74 nM,40 nM,0.79 nM,–
"CN(C)CCN(C)C(=O)c1cccc(Oc2ccc(OC(F)F)c(-c3nn(C)cc3NC(=O)c3cnn4cccnc34)c2)c1 [Example 206, N-[3-[2-(difluoromethoxy)-5-[3-[2-(dimethylamino)ethyl-methyl-carbamoyl]phenoxy]phenyl]-1-methyl-pyrazol-4-yl]pyrazolo[1,5-a]pyrimidine-3-carboxamide]",0.89 nM,45 nM,0.88 nM,–
"CCN1CC(O)(Cn2cc(Oc3ccc(OC(F)F)c(-c4nn(C)cc4NC(=O)c4cnn5cccnc45)c3)cn2)C1 [Example 207, N-[3-[2-(difluoromethoxy)-5-[1-[(1-ethyl-3-hydroxy-azetidin-3-yl)methyl]pyrazol-4-yl]oxy-phenyl]-1-methyl-pyrazol-4-yl]pyrazolo[1,5-a]pyrimidine-3-carboxamide]",0.73 nM,33 nM,0.53 nM,–
"CCn1cc(NC(=O)c2cnn3cccnc23)c(-c2cc(Oc3cnn(CC4(O)CN(C)C4)c3)ccc2OC(F)F)n1 [Example 208, N-[3-[2-(difluoromethoxy)-5-[1-[(3-hydroxy-1-methyl-azetidin-3-yl)methyl]pyrazol-4-yl]oxy-phenyl]-1-ethyl-pyrazol-4-yl]pyrazolo[1,5-a]pyrimidine-3-carboxamide]",1.2 nM,72 nM,1.2 nM,–
"CC(C)N1CCC(O)(Cn2cc(Oc3ccc(OC(F)F)c(-c4nn(C)cc4NC(=O)c4cnn5cccnc45)c3)cn2)CC1 [Example 209, N-[3-[2-(difluoromethoxy)-5-[1-[(4-hydroxy-1-isopropyl-4-piperidyl)methyl]pyrazol-4-yl]oxy-phenyl]-1-methyl-pyrazol-4-yl]pyrazolo[1,5-a]pyrimidine-3-carboxamide]",0.96 nM,190 nM,0.48 nM,–
